This note sets out measurements from patent US20080299140A1, “Immunogenic Composition and Peptide Sequences for Prevention and Treatment of an Hsv Condition” (priority 2002, published 2008).

The structures appear in SMILES notation. Numbering of substitutions follows the chain as printed. Where two headings read alike, the source gives them in different places.

Assay [1] has as its target T1, DP401=HLA-DP(α1*0101,α1*0401) (Homo sapiens, UniProt P04440+P20036).
T1 sequence (P20036 32-260 limits assumed): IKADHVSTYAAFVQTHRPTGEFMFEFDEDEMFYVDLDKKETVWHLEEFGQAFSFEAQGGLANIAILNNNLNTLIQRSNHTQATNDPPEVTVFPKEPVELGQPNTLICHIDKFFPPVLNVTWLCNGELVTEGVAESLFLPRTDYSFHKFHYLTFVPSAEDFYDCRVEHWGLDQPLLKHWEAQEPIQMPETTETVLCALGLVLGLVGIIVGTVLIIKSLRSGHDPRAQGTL
T1 sequence (P04440 30-258): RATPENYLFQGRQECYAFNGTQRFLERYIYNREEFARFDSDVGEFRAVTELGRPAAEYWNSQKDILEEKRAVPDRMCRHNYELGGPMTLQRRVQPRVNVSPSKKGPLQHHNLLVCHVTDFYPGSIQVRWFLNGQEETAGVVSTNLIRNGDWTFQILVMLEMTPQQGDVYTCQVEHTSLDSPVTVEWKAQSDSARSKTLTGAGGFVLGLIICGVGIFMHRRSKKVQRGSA
In words: biochemical. The format is binding.

In assay [2] the target is T2, DRB4=HLA-DR(α1*0101,α4*0101) (Homo sapiens, UniProt P01903+P13762, G164S).
T2 construct: endogenous in cells
Briefly: HLA-DR specific binding assay, DRB4 (DR53).

The target in assay [3] is T3, DRB3=HLA-DR(α1*0101,α3*0101) (Homo sapiens, UniProt P01903+P79483).
T3 construct: endogenous in cells; host or cells: STEILIN or 0206AD (both typed DRB3*0101)
T3 sequence (P79483 30-266, other chains not shown): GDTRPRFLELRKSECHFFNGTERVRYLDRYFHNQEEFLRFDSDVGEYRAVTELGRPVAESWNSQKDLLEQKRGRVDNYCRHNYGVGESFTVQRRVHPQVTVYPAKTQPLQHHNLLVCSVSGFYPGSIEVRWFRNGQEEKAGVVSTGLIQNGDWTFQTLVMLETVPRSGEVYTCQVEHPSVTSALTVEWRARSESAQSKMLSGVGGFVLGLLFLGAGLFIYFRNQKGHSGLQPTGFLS
Briefly: HLA-DR specific binding assay, DRB3 (DR52).

Assay [4] has as its target T4, DR4=HLA-DR(α1*0101,α1*0401) (Homo sapiens, UniProt P01903+P01911, A100K/A169T/F76Y/I96L/K127E/L162R/M171V/N62H/P40V/Q125Y/R42H/S133A/S149N/S66Y/V115G/V209L/W38E).
T4 construct: endogenous in cells; host or cells: BOLETH (EBV homozygous B cell line)
Briefly: biochemical. The assay is classed as binding.

In assay [5] the target is T5, DP402 DP (α1*0101, α1*0402) (Homo sapiens, UniProt P04440+P20036, A65V/A84D/A85E/L207M).
T5 sequence (P20036 29-260): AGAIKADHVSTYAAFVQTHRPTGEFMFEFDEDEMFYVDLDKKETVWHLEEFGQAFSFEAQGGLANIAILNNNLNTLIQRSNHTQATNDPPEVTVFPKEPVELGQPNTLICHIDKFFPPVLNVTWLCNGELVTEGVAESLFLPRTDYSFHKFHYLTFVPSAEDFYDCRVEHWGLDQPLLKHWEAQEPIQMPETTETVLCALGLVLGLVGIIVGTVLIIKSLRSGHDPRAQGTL
T5 sequence (P04440 30-258 A65V/A84D/A85E): T1 sequence (P04440 30-258) with A36V, A55D, A56E
Briefly: biochemical. The assay is classed as binding.

Assay [6] concerns the target T6, DR15=HLA-DR(α1*0101,α1*1501) (Homo sapiens, UniProt P01903+P01911).
T6 construct: endogenous in cells; host or cells: EBV homozygous human B cell line
In words: HLA-DR specific binding assay, DR15.

In assay [7] the target is T7, DRB5=HLA-DR(α1*0101,α5*0101) (Homo sapiens, UniProt P01903+Q30154).
T7 construct: endogenous in cells; host or cells: EBV homozygous human B cell line
T7 sequence (Q30154 30-266, other chains not shown): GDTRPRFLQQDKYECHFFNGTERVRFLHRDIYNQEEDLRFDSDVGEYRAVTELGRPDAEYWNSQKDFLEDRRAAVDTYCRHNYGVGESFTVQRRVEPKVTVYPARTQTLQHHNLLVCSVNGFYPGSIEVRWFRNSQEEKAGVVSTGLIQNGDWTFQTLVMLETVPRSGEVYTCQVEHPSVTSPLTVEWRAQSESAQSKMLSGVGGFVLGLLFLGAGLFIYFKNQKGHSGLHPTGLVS
In words: biochemical. The following applies: Table V; […]; read-out: IC50 DRB5. The format is binding.

Assay [8] deals with T8, DR11=HLA-DR(α1*0101,α1*1101) (Homo sapiens, UniProt P01903+P01911, A100R/A169T/A87E/I96F/K41T/L162R/M171V/P40S/Q125H/Q178H/Q39Y/Q99D/R42S/S66Y/T262R/V115G/W38E).
T8 construct: endogenous in cells; host or cells: SWEIG (EBV homozygous B cell line)
In words: biochemical. The assay is classed as binding.

In assay [9] the target is T9, DR3=HLA-DR(α1*0101,α1*0301) (Homo sapiens, UniProt P01903+P01911, A100K/A102G/A103R/A169T/F55Y/I96L/K41T/L162R/M171V/P40S/Q125H/Q178H/Q39Y/R42S/S66N/T106N/T262R/W38E/Y61H).
T9 construct: endogenous in cells; host or cells: STEILIN (EBV homozygous B cell line)
Briefly: HLA-DR specific binding assay, DR3.

The target in assay [10] is T10, DR13=HLA-DR(α1*0101,α1*1301) (Homo sapiens, UniProt P01903+P01911, A100E/A169T/K41T/L162R/M171V/P40S/Q125H/Q178H/Q39Y/Q99D/R42S/S66N/T262R/W38E/Y61H).
T10 construct: endogenous in cells; host or cells: 0206AD (EBV homozygous B cell line)
Briefly: HLA-DR specific binding assay, DR13.

Assay [11] deals with T11, DR1=HLA-DR(α1*0101,α1*0101) (Homo sapiens, UniProt P01903+P01911, A100R/D57E/F55L/F60I/F76Y/I96L/L162R/M171V/P40L/Q125E/R42F/V115G/Y59C).
T11 construct: endogenous in cells; host or cells: EBV homozygous human B cell line
In words: biochemical. The format is binding.

In assay [12] the target is T12, DR7=HLA-DR(α1*0101,α1*0701) (Homo sapiens, UniProt P01903+P01911, A100R/A102G/A103Q/D57E/D86V/E43K/F76Y/K127E/L162R/M171V/P40G/Q125H/Q99D/R33Q/R42Y/R54Q/S133A/S66F/T210M/V115G/Y107V/Y59L/Y89S).
T12 construct: endogenous in cells; host or cells: EBV homozygous human B cell line
In words: HLA-DR specific binding assay, DR7.

The mark [13] stands for this setting: Table V, […], read-out: IC50 DR4.
Where [14] appears, read: Table V, […], read-out: IC50 DR11.

`CC[C@H](C)[C@H](NC(=O)[C@H](CCCCN)NC(=O)[C@@H](NC(=O)[C@H](CC(C)C)NC(=O)[C@H](CCCNC(=N)N)NC(=O)[C@H](CC(C)C)NC(=O)[C@H](Cc1ccc(O)cc1)NC(=O)[C@@H](NC(=O)CNC(=O)[C@H](C)NC(=O)[C@@H](NC(=O)[C@H](CCC(=O)O)NC(=O)[C@H](Cc1ccccc1)NC(=O)[C@H](C)NC(=O)[C@@H]1CCCN1C(=O)[C@H](C)NC(=O)[C@H](Cc1c[nH]cn1)NC(=O)[C@H](CCSC)NC(=O)[C@H](CC(C)C)NC(=O)[C@H](Cc1ccccc1)NC(=O)CNC(=O)[C@H](CC(C)C)NC(=O)[C@H](CC(N)=O)NC(=O)[C@H](CC(=O)O)NC(=O)[C@@H](N)CCC(=O)O)[C@@H](C)O)[C@@H](C)O)C(C)C)C(=O)N[C@@H](CC(N)=O)C(=O)N[C@@H](CC(=O)O)C(=O)N[C@@H](Cc1c[nH]c2ccccc12)C(=O)N[C@H](C(=O)N[C@@H](CCC(=O)O)C(=O)N[C@H](C(=O)N[C@H](C(=O)N[C@@H](CCC(N)=O)C(=O)N[C@@H](Cc1ccccc1)C(=O)O)[C@@H](C)O)[C@@H](C)CC)[C@@H](C)O` [HSV 34]: the concentration for half-maximal inhibition (IC50) – broadly, the point on the concentration scale where inhibition reaches its midpoint – was 0.115 µM in assay [1] (Table V, […]); 0.743 µM in [2]; 2.02 µM in [3] (IC50 DRB3, Table V, […]); 0.632 µM in [4] (setting [13]); 0.164 µM in assay [5] (Table V, […]); 0.035 µM in assay [6]. The IC50 was 0.085 µM in assay [7]; 0.175 µM in assay [8] (setting [14]); 10.2 µM in assay [9] (IC50 DR3, Table V, […]); above 100 µM in [10]; 0.04 µM in [11] (IC50 DR1); 0.316 µM in assay [12].

In the case of `CSCC[C@H](NC(=O)[C@H](CCCCN)NC(=O)[C@H](CC(C)C)NC(=O)[C@H](CO)NC(=O)[C@H](C)NC(=O)[C@H](CC(=O)O)NC(=O)[C@@H](NC(=O)[C@H](CC(C)C)NC(=O)[C@H](C)NC(=O)[C@H](Cc1ccc(O)cc1)NC(=O)[C@H](CCCCN)NC(=O)[C@@H](N)CO)C(C)C)C(=O)N[C@@H](C)C(=O)N[C@@H](CC(=O)O)C(=O)N1CCC[C@H]1C(=O)N[C@@H](CC(N)=O)C(=O)N[C@@H](CCCNC(=N)N)C(=O)N[C@@H](Cc1ccccc1)C(=O)N[C@@H](CCCNC(=N)N)C(=O)NCC(=O)N[C@@H](CCCCN)C(=O)N[C@@H](CC(=O)O)C(=O)N[C@@H](CC(C)C)C(=O)N1CCC[C@H]1C(=O)N[C@H](C(=O)N[C@@H](CC(C)C)C(=O)N[C@@H](CC(=O)O)C(=O)N[C@@H](CCC(N)=O)C(=O)N[C@@H](CC(C)C)C(=O)O)C(C)C` [HSV 30], the concentration for half-maximal inhibition (IC50) is 17.7 µM in assay [1] (Class II MHC allele DP401); 17.9 µM in assay [1] (Table V, […]); above 100 µM in assay [2]; 0.535 µM in assay [3] (IC50 DRB3, Table V, […]); 0.058 µM in [4] (setting [13]); 3.8 µM in [5] (Table V, […]). Also, the IC50 was 11 µM in [6]; 0.007 µM in assay [7]; 0.648 µM in assay [8] (setting [14]); 0.079 µM in assay [9] (IC50, DR3, Class II MHC allele DR3); 0.078 µM in assay [9] (IC50 DR3, Table V, […]); above 100 µM in [10]. Besides, the IC50 in assay [11] ([…], Class II MHC allele DR1, read-out: IC50, DR1) was 0.058 µM; in assay [12], 0.374 µM.

On to `CC[C@H](C)[C@H](NC(=O)[C@H](CCC(N)=O)NC(=O)[C@@H]1CCCN1C(=O)[C@H](C)N)C(=O)N[C@H](C(=O)N[C@@H](CCCNC(=N)N)C(=O)NCC(=O)N[C@@H](C)C(=O)N[C@@H](CO)C(=O)N[C@@H](CCC(=O)O)C(=O)N[C@@H](CC(=O)O)C(=O)N[C@H](C(=O)N[C@@H](CCCNC(=N)N)C(=O)N[C@@H](CCCCN)C(=O)N[C@@H](CCC(N)=O)C(=O)N1CCC[C@H]1C(=O)N[C@@H](Cc1ccc(O)cc1)C(=O)N[C@@H](CC(N)=O)C(=O)N[C@@H](CC(C)C)C(=O)N[C@H](C(=O)N[C@H](C(=O)N[C@@H](C)C(=O)N[C@@H](Cc1c[nH]c2ccccc12)C(=O)N[C@@H](Cc1ccccc1)C(=O)N[C@@H](CCCNC(=N)N)C(=O)N[C@@H](CCSC)C(=O)NCC(=O)NCC(=O)O)[C@@H](C)CC)[C@@H](C)O)C(C)C)C(C)C` [HSV 32], for which the concentration for half-maximal inhibition (IC50) in assay [1] (Table V, […]) is 1.45 µM; in assay [3] (IC50 DRB3, Table V, […]), above 100 µM; in assay [5] (Table V, […]), 0.381 µM; in assay [7], 0.001 µM; in assay [8] (Class II MHC allele DR11, read-out: IC50, DR11) it was 0.3 µM; in assay [8] (setting [14]), 0.3 µM. Moreover, the IC50 in assay [9] (IC50 DR3, Table V, […]) worked out at 2.35 µM; in assay [12] it was 0.004 µM.

Take `CC[C@H](C)[C@H](NC(=O)[C@H](Cc1c[nH]cn1)NC(=O)[C@H](Cc1ccc(O)cc1)NC(=O)[C@@H](NC(=O)[C@H](CCCNC(=N)N)NC(=O)[C@H](CCCNC(=N)N)NC(=O)[C@@H](NC(=O)CNC(=O)[C@@H]1CCCN1C(=O)[C@@H]1CCCN1C(=O)[C@H](CC(=O)O)NC(=O)[C@@H](NC(=O)[C@H](CC(C)C)NC(=O)[C@H](CCC(N)=O)NC(=O)[C@H](CC(=O)O)NC(=O)[C@H](CC(C)C)NC(=O)[C@@H](NC(=O)[C@@H]1CCCN1C(=O)[C@H](CC(C)C)NC(=O)[C@@H](N)CC(=O)O)C(C)C)[C@@H](C)O)C(C)C)C(C)C)C(=O)N[C@@H](CCC(N)=O)C(=O)N[C@@H](C)C(=O)NCC(=O)N[C@@H](CC(C)C)C(=O)N1CCC[C@H]1C(=O)N[C@@H](CC(=O)O)C(=O)N1CCC[C@H]1C(=O)N[C@@H](Cc1ccccc1)C(=O)N[C@@H](CCC(N)=O)C(=O)N1CCC[C@H]1C(=O)N1CCC[C@H]1C(=O)N[C@@H](CO)C(=O)O` [HSV 31]: the half-inhibitory concentration (IC50) in assay [1] (Table V, […]) is 62 µM; in assay [2], 0.397 µM; in assay [3] (IC50, DRD3, Class II MHC allele DRD3 (so in the source)), 6.98 µM; in assay [3] (IC50 DRB3, Table V, […]), 5.98 µM; in [4] (IC50 DR4) it was 0.063 µM; in [5] (Class II MHC allele DP402) it was 49 µM. Besides, the IC50 in assay [5] (Table V, […]) was 47 µM; in assay [6], 0.787 µM; in [7], 0.058 µM; in assay [9] (IC50 DR3, Table V, […]) it was 2.49 µM; in assay [10], above 100 µM; in assay [11] (Table V, […], read-out: IC50 DR1) it was 0.003 µM. Further, in assay [12], the concentration for half-maximal inhibition (IC50) worked out at 0.224 µM.
